In PubChem BioAssay (NCI):
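Five compound concentrations were applied to cells in 96-well plates for 48 hours; endpoints were derived by simple linear interpolation of the resulting dose-response curve. TGI denotes the concentration required for complete inhibition of growth.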

Key:
Assay in all cases: DTP human tumour cell line panel, 48 h
[1] = system: SW-620 colon
[2] = system: 786-0 renal
[3] = system: SN12C renal
[4] = system: NCI-H226 lung
[5] = system: M19-MEL melanoma
[6] = system: NCI-H23 lung
[7] = system: K-562 leukemia
[8] = system: KM12 colon
[9] = system: OVCAR-8 ovarian
[10] = system: SK-MEL-5 melanoma
[11] = system: HCT-116 colon
[12] = system: HOP-62 NSCLC
[13] = system: HOP-18 NSCLC
[14] = system: CCRF-CEM leukemia
[15] = system: MOLT-4 leukemia
[16] = system: HT29 colon
[17] = system: SNB-78 CNS
[18] = system: OVCAR-3 ovarian
[19] = system: SR leukemia
[20] = system: U251 CNS
[21] = system: SF-268 CNS
[22] = system: SNB-75 CNS
[23] = system: DMS 114 small cell lung
[24] = system: NCI-H460 lung
[25] = system: SNB-19 CNS
[26] = system: HCT-15 colon
[27] = system: UACC-62 melanoma
[28] = system: HL-60(TB) leukemia
[29] = system: SF-295 CNS
[30] = system: IGROV1 ovarian
[31] = system: UO-31 renal
[32] = system: MALME-3M melanoma
[33] = system: EKVX NSCLC
[34] = system: KM20L2 colon
[35] = system: CAKI-1 renal
[36] = system: OVCAR-5 ovarian
[37] = system: HCC-2998 colon
[38] = system: DMS 273 small cell lung
[39] = system: ACHN renal
[40] = system: UACC-257 melanoma
[41] = system: SF-539 CNS
[42] = system: HOP-92 NSCLC
[43] = system: A549 NSCLC
[44] = system: RXF 393 renal
[45] = system: SK-MEL-28 melanoma
[46] = system: COLO 205 colon
[47] = system: SK-OV-3 ovarian
[48] = system: NCI-H522 lung
[49] = system: LXFL 529 NSCLC
[50] = system: SK-MEL-2 melanoma
[51] = system: M14 melanoma
[52] = system: RPMI-8226 leukemia
[53] = system: OVCAR-4 ovarian
[54] = system: A498 renal
[55] = system: LOX IMVI melanoma
[56] = system: DLD-1 colon
[57] = system: XF 498 CNS
[58] = system: TK-10 renal

For `COc1ccc(N2C(=O)[C@@H](N=[N+]=[N-])[C@@H]2[C@H]2COC(C)(C)O2)cc1`, the TGI [1] was greater than 100 µM, the TGI [2] was greater than 100 µM and the TGI [3] was greater than 100 µM. For the same compound, the TGI [4] was greater than 100 µM, the TGI [5] was greater than 100 µM and the TGI [6] was greater than 100 µM. It also gave a TGI [7] greater than 100 µM, a TGI [8] greater than 100 µM and a TGI [9] greater than 100 µM. For the same compound, the TGI [10] was greater than 100 µM, the TGI [11] was greater than 100 µM and the TGI [12] was greater than 100 µM. For the same compound, the TGI [13] was greater than 100 µM, the TGI [14] was greater than 100 µM and the TGI [15] was greater than 100 µM. For the same compound, the TGI [16] was greater than 100 µM, the TGI [17] was greater than 100 µM and the TGI [18] was greater than 100 µM. It also gave a TGI [19] greater than 100 µM, a TGI [20] greater than 100 µM and a TGI [21] greater than 100 µM. The TGI [22] was greater than 100 µM, the TGI [23] was greater than 100 µM and the TGI [24] was greater than 100 µM. It also gave a TGI [25] greater than 100 µM, a TGI [26] greater than 100 µM and a TGI [27] greater than 100 µM. The TGI [28] was greater than 100 µM, the TGI [29] was greater than 100 µM and the TGI [30] was greater than 100 µM. It also gave a TGI [31] greater than 100 µM, a TGI [32] greater than 100 µM and a TGI [33] greater than 100 µM. The TGI [34] was greater than 100 µM, the TGI [35] was greater than 100 µM and the TGI [36] was greater than 100 µM. For the same compound, the TGI [37] was greater than 100 µM, the TGI [38] was greater than 100 µM and the TGI [39] was greater than 100 µM. It also gave a TGI [40] greater than 100 µM, a TGI [41] greater than 100 µM and a TGI [42] greater than 100 µM. The TGI [43] was greater than 100 µM, the TGI [44] was greater than 100 µM and the TGI [45] was greater than 100 µM. The TGI [46] was greater than 100 µM, the TGI [47] was greater than 100 µM and the TGI [48] was greater than 100 µM. For the same compound, the TGI [49] was greater than 100 µM, the TGI [50] was greater than 100 µM and the TGI [51] was greater than 100 µM. It also gave a TGI [52] greater than 100 µM and a TGI [53] greater than 100 µM.
With `CC1=NN(c2ccccc2)C(=O)C12[C@H](c1ccccc1)C2(C#N)C#N` (some centres undefined) the TGI [1] was 3.84 µM, the TGI [2] was 6.18 µM and the TGI [3] was 14.3 µM. For the same compound, the TGI [4] was 26.3 µM, the TGI [5] was 6.41 µM and the TGI [6] was 11 µM. The TGI [7] was 6.12 µM, the TGI [8] was 25.1 µM and the TGI [9] was 7.27 µM. It also gave a TGI [10] of 14.3 µM, a TGI [11] of 12 µM and a TGI [12] of 31.1 µM. For the same compound, the TGI [13] was 20.3 µM, the TGI [14] was 2.78 µM and the TGI [15] was 3.1 µM. The TGI [16] was 17.1 µM, the TGI [17] was 34 µM and the TGI [18] was 19.5 µM. The TGI [54] was 31.6 µM, the TGI [20] was 29.6 µM and the TGI [21] was 20.6 µM. For the same compound, the TGI [55] was 4.63 µM, the TGI [22] was 19.3 µM and the TGI [24] was 41.5 µM. The TGI [56] was 4.01 µM, the TGI [25] was 29.5 µM and the TGI [26] was 13.9 µM. For the same compound, the TGI [27] was 12.4 µM, the TGI [28] was 7.81 µM and the TGI [29] was 25.5 µM. For the same compound, the TGI [30] was 28.1 µM, the TGI [57] was 7.22 µM and the TGI [31] was 27.9 µM. It also gave a TGI [32] of 11.6 µM, a TGI [33] of 33.6 µM and a TGI [34] of 27.3 µM. For the same compound, the TGI [58] was 25 µM, the TGI [35] was 16.3 µM and the TGI [36] was 24.2 µM. For the same compound, the TGI [37] was 34.1 µM, the TGI [38] was 6.28 µM and the TGI [39] was 21.5 µM. It also gave a TGI [40] of 18.4 µM, a TGI [41] of 27.7 µM and a TGI [42] of 7.81 µM. For the same compound, the TGI [43] was 31.9 µM, the TGI [44] was 14.6 µM and the TGI [45] was 9.6 µM. The TGI [46] was 4.42 µM, the TGI [47] was 32.7 µM and the TGI [48] was 11.5 µM. It also gave a TGI [49] of 3.89 µM, a TGI [50] of 16.7 µM and a TGI [51] of 3.14 µM. The TGI [52] was 4.08 µM and the TGI [53] was 17.5 µM.
`CS(=O)(=O)c1ccc(COP(N)(=O)N(CCCl)CCCl)cc1` (centres undefined) gave a TGI [1] greater than 100 µM, a TGI [2] greater than 100 µM and a TGI [3] greater than 100 µM. The TGI [4] was greater than 100 µM, the TGI [5] was greater than 100 µM and the TGI [6] was greater than 100 µM. For the same compound, the TGI [7] was greater than 100 µM, the TGI [8] was greater than 100 µM and the TGI [9] was greater than 100 µM. For the same compound, the TGI [10] was greater than 100 µM, the TGI [11] was greater than 100 µM and the TGI [12] was greater than 100 µM. The TGI [14] was greater than 100 µM, the TGI [15] was greater than 100 µM and the TGI [16] was greater than 100 µM. The TGI [17] was greater than 100 µM, the TGI [18] was greater than 100 µM and the TGI [54] was greater than 100 µM. For the same compound, the TGI [19] was greater than 100 µM, the TGI [20] was greater than 100 µM and the TGI [21] was greater than 100 µM. It also gave a TGI [55] greater than 100 µM, a TGI [22] greater than 100 µM and a TGI [23] greater than 100 µM. For the same compound, the TGI [24] was greater than 100 µM, the TGI [56] was greater than 100 µM and the TGI [25] was greater than 100 µM. For the same compound, the TGI [26] was greater than 100 µM, the TGI [27] was greater than 100 µM and the TGI [29] was greater than 100 µM. For the same compound, the TGI [30] was greater than 100 µM, the TGI [57] was greater than 100 µM and the TGI [31] was greater than 100 µM. For the same compound, the TGI [32] was greater than 100 µM, the TGI [34] was greater than 100 µM and the TGI [58] was greater than 100 µM. For the same compound, the TGI [35] was greater than 100 µM, the TGI [36] was greater than 100 µM and the TGI [37] was greater than 100 µM. It also gave a TGI [38] greater than 100 µM, a TGI [39] greater than 100 µM and a TGI [40] greater than 100 µM. The TGI [41] was greater than 100 µM, the TGI [42] was greater than 100 µM and the TGI [43] was greater than 100 µM. For the same compound, the TGI [44] was greater than 100 µM, the TGI [45] was greater than 100 µM and the TGI [46] was greater than 100 µM. It also gave a TGI [47] greater than 100 µM, a TGI [48] greater than 100 µM and a TGI [49] greater than 100 µM. It also gave a TGI [50] greater than 100 µM, a TGI [51] greater than 100 µM and a TGI [52] greater than 100 µM. It also gave a TGI [53] greater than 100 µM.
